Article PMC10507666, “Trifluoromethylthiolation of Tryptophan and Tyrosine Derivatives: A Tool for Enhancing the Local Hydrophobicity of Peptides” (The Journal of Organic Chemistry, 2023)
Counter-ions that a name gives are not always drawn. Residues, ends and D or L forms follow the SMILES beside them.

What was measured:
[1] = RP-HPLC retention time of EM-1 analogues (gradient); assay type: physicochemical; details: RP-HPLC analysis, gradient 20% → 60% MeCN + 0.1% TFA in H2O + 0.1% TFA; retention time used as support for enhanced local hydrophobicity
[2] = Chromatographic hydrophobicity index (CHI/HI, ϕ0) determination by isocratic RP-HPLC at pH 7; assay type: physicochemical; details: for Hydrophobicity index (HI): chromatographic, ϕ0 = –log k'w/S, pH 7, 50 mM ammonium acetate in mQ H2O / MeCN (6–22%), linear regression of four log k' values per peptide, UV 254 nm, Figure 1A; for Hydrophobicity index (HI) / k' (retention factor) / log(k'): isocratic RP-HPLC; for k' (retention factor) / log(k'): pH 7, UV 254 nm; for intercept log k'w at MeCN% = 0: linear regression of log k' versus MeCN content, pH 7, 50 mM ammonium acetate, Figure S5; for ΔHI (HI(CF3S)AA – HIAA): shift versus non-fluorinated tripeptide counterpart, chromatographic HI at pH 7
Source text: The hydrophobicity index (HI) shift ΔHI (HI(CF3S)AA – HIAA) is an assessment of the contribution of the CF3S substituent to the increase in local hydrophobicity. This method, developed by Valkó et al.,[27] has already been successfully applied to measure the increased local hydrophobicity of peptides containing fluorinated AAs.[6b],[28] This short peptide sequence was chosen to prevent the formation of secondary structures that could affect hydrophobicity (see the Supporting Information, Chapter 6, for details). […] It is noteworthy that the replacement of the Tyr residue with its CF3S-Tyr analogue provides a higher local enhancement of the hydrophobicity (ΔHI = HI(CF3S)Tyr – HITyrca. 12 units) compared to the Trp series (ΔHI = HI(CF3S)Trp – HITrpca. 8 units).
6. Hydrophobicity index determination
The peptides were prepared according to the SPPS general procedure.
The chromatographic hydrophobicity index (CHI) was determined according to the protocols described previously. 17 Experiments were performed at pH 7 using 50 mM ammonium acetate in mQ H2O and MeCN as mobile phase. Peptides 9-12 were dissolved in 50 mM ammonium acetate before injection (25 µL injection volume). Retention factors (k') were determined at λ = 254 nm at various MeCN concentrations ranging from 6–22% (k' = (tR–t0) / […]). Then, log k' was expressed as a function of MeCN content and linear regression was applied to four values per peptide. The intercept log k'w at MeCN% = 0 and the slopes S were extracted from the linear fit for each peptide (correlation coefficient: R2 > 0.99). The isocratic hydrophobicity index (CHI) was calcd for each peptide using the following equation: […]
RP-HPLC analysis: >95% purity; tR = 10.42 min (7% MeCN in ammonium acetate buffer (pH […]
(1 picture or pasted object on this page, not shown here)
Table of retention times (tR), dead times (t0), and calculated log k' and CHI for peptides 9-12 at pH 7: […]
Peptide 12 (22% MeCN in 50 mM ammonium acetate buffer, pH 7, 1 mL/min):
Chromatographic hydrophobicity index C HI (pH 7) of peptides 9-12 […]
Figure S5: RP-HPLC determination of the chromatographic hydrophobicity index CHI for peptides 9-12 at pH 7 by linear regression of log k' values as a function of MeCN content.

[3] = CF3S-tyramine versus tyramine, from pKa values in H2O/D2O 90:10
Source text: Figure 1 Biophysical property evaluation.
Finally, we assessed the influence of the CF3S group on the acidity of the vicinal phenol function in a simplified tyramine model carrying an ortho CF3S.

[4] = 6% MeCN in 50 mM ammonium acetate buffer
[5] = 7% MeCN in 50 mM ammonium acetate buffer
[6] = 8% MeCN in 50 mM ammonium acetate buffer
[7] = 9% MeCN in 50 mM ammonium acetate buffer
[8] = 12% MeCN in 50 mM ammonium acetate buffer
[9] = 13% MeCN in 50 mM ammonium acetate buffer
[10] = 14% MeCN in 50 mM ammonium acetate buffer
[11] = 15% MeCN in 50 mM ammonium acetate buffer
[12] = 17% MeCN in 50 mM ammonium acetate buffer
[13] = 18% MeCN in 50 mM ammonium acetate buffer
[14] = 19% MeCN in 50 mM ammonium acetate buffer
[15] = 20% MeCN in 50 mM ammonium acetate buffer
[16] = 21% MeCN in 50 mM ammonium acetate buffer
[17] = 22% MeCN in 50 mM ammonium acetate buffer

## NC(=O)[C@H](Cc1ccccc1)NC(=O)[C@H](Cc1c(SC(F)(F)F)[nH]c2ccccc12)NC(=O)[C@@H]1CCCN1C(=O)[C@@H](N)Cc1ccc(O)cc1 [(CF3S)Trp-EM-1]
[1]
  tR: 10.9 min

## NC(=O)[C@H](Cc1ccccc1)NC(=O)[C@H](Cc1c[nH]c2ccccc12)NC(=O)[C@@H]1CCCN1C(=O)[C@@H](N)Cc1ccc(O)c(SC(F)(F)F)c1 [(CF3S)Tyr-EM-1]
[1]
  tR: 11.6 min

## NC(=O)[C@H](Cc1ccccc1)NC(=O)[C@H](Cc1c[nH]c2ccccc12)NC(=O)[C@@H]1CCCN1C(=O)[C@@H](N)Cc1ccc(O)cc1 [EM-1, endomorphin-1, reference compound]
[1]
  tR: 8.1 min

## CC(C)C[C@H](NC(=O)[C@H](Cc1ccc(O)cc1)NC(=O)[C@H](C)N)C(=O)O [compound 9, TFA·H2N-L-Ala-L-Tyr-L-Leu-OH] (H-Ala-Tyr-Leu-OH)
[2]
  Hydrophobicity index (HI): 11.37
  intercept log k'w at MeCN% = 0: 1.6998
[2]; [4]
  k' (retention factor): 6.432
  log(k'): 0.808
[2]; [5]
  k' (retention factor): 4.433
  log(k'): 0.647
[2]; [6]
  k' (retention factor): 3.166
  log(k'): 0.501
[2]; [7]
  k' (retention factor): 2.284
  log(k'): 0.359

## CC(C)C[C@H](NC(=O)[C@H](Cc1c[nH]c2ccccc12)NC(=O)[C@H](C)N)C(=O)O [compound 10, TFA·H2N-Ala-Trp-Leu-OH] (H-Ala-Trp-Leu-OH)
[2]
  Hydrophobicity index (HI): 19.13
  intercept log k'w at MeCN% = 0: 2.3234
[2]; [8]
  k' (retention factor): 7.397
  log(k'): 0.869
[2]; [9]
  k' (retention factor): 5.507
  log(k'): 0.741
[2]; [10]
  k' (retention factor): 4.188
  log(k'): 0.622
[2]; [11]
  k' (retention factor): 3.191
  log(k'): 0.504

## CC(C)C[C@H](NC(=O)[C@H](Cc1ccc(O)c(SC(F)(F)F)c1)NC(=O)[C@H](C)N)C(=O)O [compound 11, TFA·H2N-Ala-(CF3S)Tyr-Leu-OH]
[2]
  Hydrophobicity index (HI): 23.27
  intercept log k'w at MeCN% = 0: 2.7107
  ΔHI (HI(CF3S)AA – HIAA): ca. 12 units
[2]; [11]
  k' (retention factor): 9.198
  log(k'): 0.964
[2]; [12]
  k' (retention factor): 5.352
  log(k'): 0.729
[2]; [13]
  k' (retention factor): 4.091
  log(k'): 0.612
[2]; [14]
  k' (retention factor): 3.149
  log(k'): 0.498

## CC(C)C[C@H](NC(=O)[C@H](Cc1c(SC(F)(F)F)[nH]c2ccccc12)NC(=O)[C@H](C)N)C(=O)O [compound 12, TFA·H2N-Ala-(CF3S)Trp-Leu-OH]
[2]
  Hydrophobicity index (HI): 27.15
  intercept log k'w at MeCN% = 0: 3.1793
  ΔHI (HI(CF3S)AA – HIAA): ca. 8 units
[2]; [14]
  k' (retention factor): 9.031
  log(k'): 0.956
[2]; [15]
  k' (retention factor): 6.844
  log(k'): 0.835
[2]; [16]
  k' (retention factor): 5.211
  log(k'): 0.717
[2]; [17]
  k' (retention factor): 4.025
  log(k'): 0.605

## CF3S-tyramine [6e]
[3]
  increase of the acidity of the vicinal hydroxyl group: 100 fold
